In PubChem BioAssay (NCI):
Several values for one entry are separate records, joined by “and”; a condition that tells them apart may be missing. Equal values may be shown once.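 Protocol summary: plate cells (96-well), add compound at 5 concentrations, incubate 48 h, interpolate endpoints linearly. GI50 = concentration required for 50% inhibition of growth. TGI: total growth inhibition.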

Key:
Test in all cases: DTP human tumour cell line panel, 48 h
[1] = system: EKVX NSCLC
[2] = system: NCI-H226 lung
[3] = system: A549 NSCLC
[4] = system: SN12C renal
[5] = system: MALME-3M melanoma
[6] = system: COLO 205 colon
[7] = system: ACHN renal
[8] = system: TK-10 renal
[9] = system: DLD-1 colon
[10] = system: M19-MEL melanoma

Fc1ccc(/C=N/n2c(-c3ccc(F)c(Cl)c3)nn(CNc3ccccc3C(F)(F)F)c2=S)cc1
GI50 [1]: 37.2 µM | TGI [1]: > 100 µM | GI50 [2]: 69.5 µM | TGI [2]: > 100 µM | GI50 [3]: 52.8 µM | TGI [3]: > 100 µM | GI50 [4]: 39.3 µM | TGI [4]: > 100 µM | GI50 [5]: 27.2 µM | TGI [5]: 95.7 µM | GI50 [6]: 47.7 µM | TGI [6]: > 100 µM | GI50 [7]: 81.1 µM | TGI [7]: > 100 µM | GI50 [8]: 38.7 µM | TGI [8]: > 100 µM

c1cnn2ncc(-c3ccnc(NCCCN4CCOCC4)n3)c2c1
GI50 [1]: 6.67 µM | TGI [1]: > 25 µM | GI50 [2]: 3.79 µM | TGI [2]: > 16.8 µM | GI50 [3]: 7.7 µM | TGI [3]: > 25 µM | GI50 [4]: 8.2 µM | TGI [4]: > 25 µM | GI50 [5]: 7.63 µM | TGI [5]: 24.5 µM | GI50 [6]: 3.9 µM | TGI [6]: 7.96 µM | GI50 [7]: 6.08 µM | TGI [7]: > 25 µM | GI50 [8]: 6.67 µM | TGI [8]: > 23.2 µM

NNC(=O)CS(=O)(=O)Nc1ncccn1
TGI [1]: > 100 µM | TGI [2]: > 100 µM | TGI [3]: > 100 µM | TGI [4]: > 100 µM | TGI [5]: > 100 µM | TGI [6]: > 100 µM | TGI [7]: > 100 µM | TGI [8]: > 100 µM

O=C(NC1CCCCC1)NS(=O)(=O)c1ccc2c(c1)CCC2
TGI [1]: > 100 µM | TGI [2]: > 100 µM | TGI [3]: > 100 µM | TGI [4]: > 100 µM | TGI [5]: > 100 µM | TGI [6]: > 100 µM | TGI [7]: > 100 µM | TGI [9]: > 100 µM | TGI [8]: > 100 µM | TGI [10]: > 100 µM

COc1cc(N2C(=O)[C@H](O)C2c2ccc(SC)cc2)cc(OC)c1OC (some centres undefined)
GI50 [1]: < 0.01 µM | TGI [1]: > 100 µM | GI50 [2]: < 0.01 µM | TGI [2]: > 100 µM | GI50 [3]: 0.0131 µM | TGI [3]: > 100 µM | GI50 [4]: 0.0482 µM | TGI [4]: > 100 µM | GI50 [5]: 21.6 µM | TGI [5]: 74 µM | GI50 [6]: 0.0101 µM | TGI [6]: 0.0357 µM | GI50 [7]: < 0.01 µM | TGI [7]: 60.5 µM | GI50 [8]: 23.2 µM | TGI [8]: > 100 µM

NC(=O)c1csc(C2OC(CO)C(O)C2O)n1 (centres undefined)
TGI [1]: 5940 µM | GI50 [2]: 99.2 µM | TGI [2]: > 9450 µM | GI50 [3]: 130 µM | TGI [3]: > 10000 µM | TGI [4]: > 8480 µM | TGI [5]: > 7980 µM | GI50 [6]: 4.76 µM | TGI [6]: > 31.6 µM and 6210 µM | GI50 [7]: 54.5 µM | TGI [7]: > 10000 µM | TGI [9]: > 7200 µM | GI50 [8]: > 74.5 µM | TGI [8]: > 10000 µM | TGI [10]: > 5520 µM

CC(C)NCCCn1c(Sc2cc3c(cc2I)OCO3)nc2c(N)ncnc21
GI50 [1]: 2.53 µM | TGI [1]: > 100 µM | GI50 [2]: 0.767 µM | TGI [2]: 79.4 µM | GI50 [3]: 0.0872 µM | TGI [3]: > 86.6 µM | GI50 [4]: 0.174 µM | TGI [4]: > 100 µM | GI50 [5]: 0.124 µM | TGI [5]: 2.12 µM | GI50 [6]: 0.0477 µM | TGI [6]: 10.8 µM | GI50 [7]: 0.297 µM | TGI [7]: > 100 µM | GI50 [8]: 0.161 µM | TGI [8]: > 100 µM

O=C1c2c(c3c4ccccc4[nH]c3c3ccc4ccccc4c23)C(=O)N1CCN1CCNCC1
GI50 [1]: 1.59 µM | TGI [1]: 3.15 µM | GI50 [2]: 11.7 µM | TGI [2]: 33.3 µM | GI50 [3]: 1.16 µM | TGI [3]: 2.64 µM | GI50 [4]: 1.68 µM | TGI [4]: 3.13 µM | GI50 [5]: 1.57 µM | TGI [5]: 3.18 µM | GI50 [6]: 1.78 µM | TGI [6]: 3.6 µM | GI50 [7]: 1.56 µM | TGI [7]: 2.9 µM | GI50 [8]: 1.77 µM | TGI [8]: 3.24 µM

Cc1c(/C=N/N=C/c2[nH]c(C(=O)OC(C)(C)C)c(C)c2C)[nH]c(C(=O)OC(C)(C)C)c1C
TGI [1]: > 100 µM | TGI [2]: > 100 µM | TGI [3]: > 100 µM | TGI [4]: > 100 µM | TGI [5]: > 100 µM | TGI [6]: > 100 µM | TGI [9]: > 100 µM | TGI [8]: > 100 µM | TGI [10]: > 100 µM

COC1C=COC2(C)Oc3c(C)c(O)c4c(c3C2=O)/C(=N/C2CCC(O)OC2C)C=C(NC(=O)/C(C)=C\C(=O)C2CC2C(O)C(C)C(O)C(C)C(OC(C)=O)C1C)C4=O (centres undefined)
TGI [1]: 8.75 µM | TGI [2]: 8.06 µM | TGI [3]: 11.4 µM | TGI [4]: 3.24 µM | TGI [5]: 3.36 µM | TGI [6]: 3.38 µM | TGI [7]: 6.68 µM | TGI [8]: 7.25 µM

O=C1c2ccccc2-c2cc([N+](=O)[O-])c([N+](=O)[O-])cc21
TGI [1]: 4.11 µM | TGI [2]: 12.6 µM | TGI [3]: 6.23 µM | TGI [4]: 3.42 µM | TGI [5]: 4.95 µM | TGI [6]: 4.71 µM | TGI [7]: 3.07 µM | TGI [8]: 2.81 µM

O=C1C(=C([O-])c2ccccc2)C(=O)c2ccccc21.O=C1C(=C([O-])c2ccccc2)C(=O)c2ccccc21.[Fe+2]
GI50 [2]: > 100 µM | TGI [2]: > 100 µM | GI50 [3]: 54.7 µM | TGI [3]: > 100 µM | GI50 [4]: > 100 µM | TGI [4]: > 100 µM | GI50 [5]: > 100 µM | TGI [5]: > 100 µM | GI50 [6]: 38.2 µM | TGI [6]: > 100 µM | GI50 [7]: > 100 µM | TGI [7]: > 100 µM | GI50 [9]: > 100 µM | TGI [9]: > 100 µM | GI50 [8]: 88.3 µM | TGI [8]: > 100 µM | GI50 [10]: > 100 µM | TGI [10]: > 100 µM

CC#CCC1CCC(OCC)=CC1=O (centres undefined)
TGI [1]: > 100 µM | TGI [2]: > 100 µM | TGI [3]: > 100 µM | TGI [4]: > 100 µM | TGI [6]: > 100 µM | TGI [7]: > 100 µM | TGI [9]: > 100 µM | TGI [8]: > 100 µM | TGI [10]: > 100 µM

Nc1nc(OCc2ccccc2)c2[nH]cnc2n1
GI50 [1]: 64.1 µM and 32.3 µM | TGI [1]: 307 µM and 274 µM | GI50 [2]: 36.8 µM and 16.3 µM | TGI [2]: 119 µM and 82 µM | GI50 [3]: 35.1 µM and 48.9 µM | TGI [3]: 338 µM and 240 µM | GI50 [4]: 29.4 µM and 26.4 µM | TGI [4]: 400 µM and 193 µM | GI50 [5]: 28 µM and 23.3 µM | TGI [5]: 264 µM and 136 µM | GI50 [6]: 57 µM and 36.1 µM | TGI [6]: 288 µM and 151 µM | GI50 [7]: 23.1 µM and 23.4 µM | TGI [7]: 244 µM and 125 µM | TGI [9]: 400 µM | GI50 [8]: 56.4 µM and 11.7 µM | TGI [8]: 183 µM and 104 µM | TGI [10]: 400 µM

CO/N=C(\COc1ccc2c(c1)[nH]c1ccccc12)c1ccc(F)cc1
GI50 [1]: 65.9 µM | TGI [1]: > 100 µM | GI50 [2]: > 100 µM | TGI [2]: > 100 µM | GI50 [3]: 29.6 µM | TGI [3]: > 100 µM | GI50 [4]: > 100 µM | TGI [4]: > 100 µM | GI50 [5]: 22.8 µM | TGI [5]: > 100 µM | GI50 [6]: > 100 µM | TGI [6]: > 100 µM | GI50 [7]: 35.7 µM | TGI [7]: > 100 µM | GI50 [8]: 25.9 µM | TGI [8]: > 100 µM
